This assay concerns the target T1, recombinant human cannabinoid CB2 receptor (Homo sapiens, UniProt P34972).
T1 construct: purchased Receptor Biology RB-HCB2
Briefly: competition with [3H] CP-55,940 for binding to recombinant cannabinoid receptor membranes (CB2). The procedure: Potential cannabinoid receptor ligands were screened for the ability to compete with [^3H] CP-55,940 for binding to recombinant cannabinoid receptors. Test compounds were serially diluted in Diluent Buffer (50 mM Tris pH 7.1, 1 mM EDTA, 3 mM MgCl2, 0.1% BSA, 10% DMSO, 0.36% methyl cellulose (Sigma M-6385)) from stocks prepared in 100% DMSO. Aliquots (10 μL) were transferred into 96-well microtiter plates. Membrane preparations of recombinant human cannabinoid CB2 receptor (Receptor Biology #RB-HCB2) or recombinant human cannabinoid CB1 receptor (Receptor Biology #RB-HCB1) were diluted to 0.3 mg/mL in Binding Buffer (50 mM Tris pH 7.2, 1 mM EDTA, 3 mM MgCl2, 0.1% BSA). Aliquots (50 μL) were added to each well of the microtiter plate. The binding reactions were initiated by addition of [^3H] CP-55,940 (New England Nuclear # NET 1051; specific activity=180 Ci/mmol) to each well of the microtiter plate. Each 100 μl reaction mixture contained 0.48 nM [^3H] CP-55,940, 15 μg membrane protein in binding buffer containing 1% DMSO and 0.036% methyl cellulose. Following incubation for 2 hours at room temperature, the reactions were filtered through 0.5% polyethylenimine-coated GF/C filter plates (UniFilter-96, Packard) with a TomTec Mark 3U Harvester (Hamden, CT). The filter plate was washed 5 times with binding buffer, rotated 180°, then re-washed 5 times with binding buffer. Bound radioactivity was quantitated following addition of 30 μl of Packard Microscint 20 scintillant in a Packard TopCount NXT microplate scintillation counter. Non-linear regression analysis of the resulting data was performed using Prism 2.0b (GraphPad, San Diego, Calif.).
The activities (potencies) for the compounds of the invention are determined by measuring their Ki values.

The mark [1] stands for this setting: 0.48 nM [3H] CP-55,940, 15 μg membrane protein, 2 hours at room temperature, read-out: CB2 Ki.

pKi: −log10 of the molar value. Like-named read-outs stand apart in the source and are kept apart here.

For orientation: pKi means the Ki on a negative log10 scale, so that one unit is a factor of ten.

T1 sequence (P34972 whole entry): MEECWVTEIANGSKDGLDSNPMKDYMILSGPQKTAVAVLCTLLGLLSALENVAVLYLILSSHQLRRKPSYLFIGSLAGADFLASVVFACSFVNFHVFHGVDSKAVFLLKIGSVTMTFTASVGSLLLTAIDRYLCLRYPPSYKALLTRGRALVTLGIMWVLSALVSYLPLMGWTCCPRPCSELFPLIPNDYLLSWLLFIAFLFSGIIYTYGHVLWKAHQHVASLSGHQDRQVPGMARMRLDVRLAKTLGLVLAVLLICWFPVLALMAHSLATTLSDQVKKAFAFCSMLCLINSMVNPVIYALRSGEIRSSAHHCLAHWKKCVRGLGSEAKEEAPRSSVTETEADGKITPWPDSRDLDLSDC

Consider `CC(C)c1ccc(Cc2ccc(OC(F)(F)F)cc2S(=O)(=O)c2ccccc2F)cc1` [C], for which the pKi is > 7.70.

On to `O=S(=O)(c1ccc(C2CC2)cc1)c1ccc(Cl)cc1S(=O)(=O)c1ccccc1F` [K], for which the pKi under setting [1] is > 7.70.

Consider `COc1ccc(S(=O)(=O)c2ccc(C3CC3)cc2)c(S(=O)(=O)c2ccccc2F)c1` [AH], for which, under setting [1], the pKi is > 7.70.

Consider `COCCOc1ccc(S(=O)(=O)c2ccc(C(C)C)cc2)c(S(=O)(=O)c2ccccc2F)c1` [S], for which the pKi under setting [1] is > 7.70.

Take `COc1ccc(S(=O)(=O)c2ccc(C(C)C)cc2)c(S(=O)(=O)c2ccccn2)c1` [AG]: the pKi was > 7.70.

As to `CC(C)c1ccc(S(=O)(=O)c2c(S(=O)(=O)c3ccccn3)c3ccccc3n2C)cc1` [AQ], the pKi under setting [1] is > 7.70.

Regarding `CC(C)c1ccc(S(=O)(=O)c2ccc(OC(F)(F)F)cc2S(=O)(=O)c2ccccc2F)cc1` [F], the pKi was > 7.70.

As for `CC(C)c1ccc(S(=O)(=O)c2ccc(C(C)C)cc2S(=O)(=O)c2ccccn2)cc1` [AJ], under setting [1], the pKi was > 7.70.

With `CC(C)c1ccc(S(=O)(=O)c2c(S(=O)(=O)c3ccccc3F)c3ccccc3n2C)cc1` [AO], the pKi is > 7.70.

Take `CC(C)Oc1ccc(S(=O)(=O)c2ccc(C(C)C)cc2)c(S(=O)(=O)c2ccccc2F)c1` [AK]: the pKi under setting [1] was > 7.70.

Consider `CC(C)c1ccc(S(=O)(=O)c2ccc(OC(F)(F)F)cc2S(=O)(=O)c2ccccn2)cc1` [G], for which, under setting [1], the negative logarithm of the Ki (pKi) is > 7.70.

These data come from US7642272B2, “Cannabinoid receptor ligands” (Schering Corporation, priority 2003, dated 2010).
